Key:
VHL [1] = biological target: T1, VHL (Homo sapiens, UniProt P40337); assay: VHL HEK-293 BRET Assay (VHL NanoBRET Target Engagement Assay); assay type: cell-based; conditions: for IC50: HEK 293 RT VHL-NanoLuc stable cells, 1 uM tracer, 2 hours, geometric mean where more than one measurement, read-out: VHL binding in cells (HEK293 nanoBRET); for Ratio cell permeability shift: ratio not defined
T1 construct: expressed in transfected cells
Experimental: (§1) The VHL NanoBRET™ Target Engagement Assay analyzes the apparent affinity of test compounds for VHL in cells by competitive displacement of a VHL NanoBRET™ tracer reversibly bound to a NanoLuc® VHL fusion protein stably expressed in the cells.
(§2) 50 nL of control compound (10 mM; parental unlabeled VHL antagonist; see structure below) and 50 nL of DMSO (negative control) were dispensed into the appropriate control wells. DMSO was backfilled to a final volume of 50 nL as required. […] Max Signal control wells consisted of DMSO only treated wells. Minimum Signal control wells contained of 10 uM parental unlabeled VHL antagonist (control compound—see structure below). […] Background Signal control wells were prepared without tracer for background correction steps.
(§3) The raw BRET ratio values were calculated by dividing the acceptor emission value (610 nm) by the donor emission value (460 nm) for each sample. To correct for background, the BRET ratio in the absence of tracer (average of no-tracer control samples) was subtracted from the BRET ratio of each sample. Raw BRET units were converted to milliBRET units (mBU) by multiplying each raw BRET value by 1,000. The normalized NanoBRET™ signal was calculated relative to the Max Signal control wells (DMSO treated control wells) and the Minimum Signal control wells. Percentage inhibition was calculated relative to the Minimum Signal control and Maximum Signal control wells. IC50 values were derived by four parameter curve fitting using the Robust method.

VHL [2] = biological target: T1, VHL; assay: VHL nanoBRET (+ Digitonin); assay type: cell-based
Experimental: as §1, §2, §3

T1 sequence (P40337 whole entry): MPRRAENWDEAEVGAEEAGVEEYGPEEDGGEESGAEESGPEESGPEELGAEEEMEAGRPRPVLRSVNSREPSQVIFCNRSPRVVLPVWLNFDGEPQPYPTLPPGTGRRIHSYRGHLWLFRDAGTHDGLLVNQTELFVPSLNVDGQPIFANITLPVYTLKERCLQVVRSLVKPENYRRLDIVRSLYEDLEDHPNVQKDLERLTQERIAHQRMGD

Compound | IC50 (VHL [1]) [µM] | Ratio cell permeability shift (VHL [1]) | EC50 (VHL [2]) [µM]
Cc1ncsc1-c1ccc(C(C)NC(=O)[C@@H]2C[C@@H](O)CN2C(=O)[C@@H](n2cc(C3CC3)nn2)C23CC4CC(CC(C4)C2)C3)c(Cl)c1 (stereo partly drawn) [Example S23, (2S,4R)-1-((2S)-2-(adamantan-1-yl)-2-(4-cyclopropyl-1H-1,2,3-triazol-1-yl)acetyl)-N-(1-(2-chloro-4-(4-methylthiazol-5-yl)phenyl)ethyl)-4-hydroxypyrrolidine-2-carboxamide] | 0.02 | 0.42 | 0.04
CC(=O)NCC1(c2cn([C@H](C(=O)N3C[C@H](O)C[C@H]3C(=O)N[C@H](Cc3ccc(-c4ccccc4)cc3)C(N)=O)C(C)(C)C)nn2)CC1 [Example S13, (2S,4R)—N—((R)-3-([1,1′-biphenyl]-4-yl)-1-amino-1-oxopropan-2-yl)-1-((S)-2-(4-(1-(acetamidomethyl)cyclopropyl)-1H-1,2,3-triazol-1-yl)-3,3-dimethylbutanoyl)-4-hydroxypyrrolidine-2-carboxamide] | 2.27 | 10.22 | 0.22
CC[C@H](C)[C@@H](C(=O)N1C[C@H](O)C[C@H]1C(=O)N[C@H](Cc1ccc(-c2ccccc2)cc1)C(N)=O)n1cc(C2CC2)nn1 [Example S5, (2S,4R)—N—((R)-3-([1,1′-biphenyl]-4-yl)-1-amino-1-oxopropan-2-yl)-1-((2S,3S)-2-(4-cyclopropyl-1H-1,2,3-triazol-1-yl)-3-methylpentanoyl)-4-hydroxypyrrolidine-2-carboxamide] | 0.13 | 0.77 | 0.17
CC(C)[C@@H](C(=O)N1C[C@H](O)C[C@H]1C(=O)N[C@H](Cc1ccc(-c2ccccc2)cc1)C(N)=O)n1cc(-c2ccco2)nn1 [Example S39, (2S,4R)—N—((R)-3-([1,1′-biphenyl]-4-yl)-1-amino-1-oxopropan-2-yl)-1-((S)-2-(4-(furan-2-yl)-1H-1,2,3-triazol-1-yl)-3-methylbutanoyl)-4-hydroxypyrrolidine-2-carboxamide] | 0.11 | 0.93 | 0.11
Cc1ncsc1-c1ccc(CNC(=O)[C@@H]2C[C@@H](O)CN2C(=O)[C@@H](n2cc(C3CC3)nn2)C(C)(C)c2ccccc2)cc1 [Example S26, (2S,4R)-1-((S)-2-(4-cyclopropyl-1H-1,2,3-triazol-1-yl)-3-methyl-3-phenylbutanoyl)-4-hydroxy-N-(4-(4-methylthiazol-5-yl)benzyl)pyrrolidine-2-carboxamide] | 0.02 | 1.02 | 0.02

Second part, the compound after the results:

IC50 (VHL [1]) [µM] | Ratio cell permeability shift (VHL [1]) | EC50 (VHL [2]) [µM] | Compound
0.01 | 0.72 | 0.01 | C[C@H](NC(=O)[C@@H]1C[C@@H](O)CN1C(=O)[C@@H](n1cc(C2CC2)nn1)C(C)(C)C)c1ccc(-c2ccccc2F)cc1 [Example S41, (2S,4R)-1-((S)-2-(4-cyclopropyl-1H-1,2,3-triazol-1-yl)-3,3-dimethylbutanoyl)-N—((S)-1-(2′-fluoro-[1,1′-biphenyl]-4-yl)ethyl)-4-hydroxypyrrolidine-2-carboxamide]
1.62 | 1.64 | 0.99 | COC(=O)c1nnn([C@H](C(=O)N2C[C@H](O)C[C@H]2C(=O)N[C@H](Cc2ccc(-c3ccccc3)cc2)C(N)=O)C(C)C)c1C (single isomer, unassigned) [Isomer B from Example S33]
0.2 | 0.86 | 0.23 | Cc1ncsc1-c1ccc2c(c1)CCCC[C@@H]2NC(=O)[C@@H]1C[C@@H](O)CN1C(=O)[C@@H](n1cc(C2CC2)nn1)C(C)(C)C [Example S45, (2S,4R)-1-((S)-2-(4-cyclopropyl-1H-1,2,3-triazol-1-yl)-3,3-dimethylbutanoyl)-4-hydroxy-N—((S)-2-(4-methylthiazol-5-yl)-6,7,8,9-tetrahydro-5H-benzo[7]annulen-5-yl)pyrrolidine-2-carboxamide]
